Measurements from article PMC8414367, “(E)-7-Ethylidene-lithocholic Acid (7-ELCA) Is a Potent Dual Farnesoid X Receptor (FXR) Antagonist and GPBAR1 Agonist Inhibiting FXR-Induced Gene Expression in Hepatocytes and Stimulating Glucagon-like Peptide-1 Secretion From Enteroendocrine Cells” (Frontiers in Pharmacology, 2021).
Like-named read-outs stand apart in the source and are kept apart here.

Tests used:
HepaRG = experiment: MTS viability assay; assay type: cell-based, human; details: Homo sapiens, 24 h, MTS, read-out: IC50 (µM), cell viability
Protocol: (§1) The potential cytotoxicity of 7-alkylated chenodeoxycholic acid derivatives were assessed in different human (HepG2, HepaRG and Huh7) and murine (AML12) hepatocyte-derived cell lines. For this purpose, hepatic cells were treated at increasing concentration for 24h and analyzed by MTS viability assay.
(§2) Table S2. Cell viability was determined using the Cell Titer 96 Aqueous One Solution Cell Proliferation Assay (MTS assay) after treatment with test compounds for 24 h in four different hepatic cell lines. Vehicle (0.1% DMSO) and background (10% SDS; v/v, toxic control) controls of cell viability were set to be 100% and 0%, respectively.

HepG2 = experiment: MTS viability assay; assay type: cell-based, human; details: Homo sapiens; HepG2, 24 h, MTS; read-out: IC50 (µM), cell viability
Protocol: as §1, §2

Huh7 = experiment: MTS viability assay; assay type: cell-based, human; details: Homo sapiens, Huh-7; Huh7, 24 h, MTS; read-out: IC50 (µM), cell viability
Protocol: as §1, §2

MTS viability assay [1] = assay type: cell-based, human; details: human, vehicle = 100%
Protocol: as §1, §2

human FXR = molecular target: T1, human FXR (Homo sapiens, UniProt Q96RI1); experiment: FXR luciferase reporter gene assay (FXRE-luc) in HepG2 cells, antagonistic mode; assay type: cell-based; details: for remaining activity at 10 µM: tested compound 10 µM; for remaining activity at 40 µM: tested compound 40 µM, * = significant effect on cellular viability; for capacity to antagonize OCA-stimulated FXR activation (in words): Figure 3B
T1 sequence (Q96RI1 1-486): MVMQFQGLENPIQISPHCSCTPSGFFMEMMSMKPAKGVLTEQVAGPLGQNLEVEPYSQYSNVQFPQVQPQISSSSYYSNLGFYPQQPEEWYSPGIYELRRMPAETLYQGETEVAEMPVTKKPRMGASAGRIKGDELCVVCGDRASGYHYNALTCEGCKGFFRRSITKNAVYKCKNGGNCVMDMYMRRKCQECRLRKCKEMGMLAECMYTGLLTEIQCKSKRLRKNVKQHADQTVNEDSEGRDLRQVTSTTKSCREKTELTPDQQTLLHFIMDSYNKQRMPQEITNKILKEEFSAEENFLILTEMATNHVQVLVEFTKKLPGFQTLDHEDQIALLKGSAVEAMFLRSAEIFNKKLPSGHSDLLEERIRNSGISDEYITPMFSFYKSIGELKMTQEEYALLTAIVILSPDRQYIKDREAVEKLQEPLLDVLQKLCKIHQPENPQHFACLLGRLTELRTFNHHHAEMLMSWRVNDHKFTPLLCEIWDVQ
T1 sequence (P19793 1-462 partner): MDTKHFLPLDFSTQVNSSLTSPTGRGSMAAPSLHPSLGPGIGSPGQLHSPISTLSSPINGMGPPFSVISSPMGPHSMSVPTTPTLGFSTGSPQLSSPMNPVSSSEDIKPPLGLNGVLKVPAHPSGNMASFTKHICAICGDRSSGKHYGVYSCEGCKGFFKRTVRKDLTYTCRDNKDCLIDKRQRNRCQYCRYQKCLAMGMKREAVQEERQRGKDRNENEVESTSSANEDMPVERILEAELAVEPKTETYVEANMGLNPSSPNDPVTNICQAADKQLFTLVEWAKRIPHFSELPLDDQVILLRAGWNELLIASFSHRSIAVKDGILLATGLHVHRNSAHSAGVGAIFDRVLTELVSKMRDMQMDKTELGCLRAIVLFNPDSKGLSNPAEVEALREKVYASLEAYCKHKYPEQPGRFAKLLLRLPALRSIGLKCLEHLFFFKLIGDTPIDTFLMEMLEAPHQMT

AML12 = experiment: MTS viability assay; assay type: cell-based, murine; details: Mus musculus; AML12, 24 h, MTS; read-out: IC50 (µM), cell viability
Protocol: as §1, §2

MTS viability assay [2] = assay type: cell-based, murine; details: mouse, AML12 cells; AML12, 24 h, vehicle = 100%
Protocol: as §1, §2

GPBAR1 = molecular target: T2, GPBAR1 (Homo sapiens, UniProt Q8TDU6); experiment: GPBAR1 CRE-luc luciferase reporter assay in HepG2 cells; assay type: cell-based; details: 10 µM, 5 h, LCA 10 µM set as 100%
T2 construct: host or cells: HepG2
T2 sequence (Q8TDU6 1-330): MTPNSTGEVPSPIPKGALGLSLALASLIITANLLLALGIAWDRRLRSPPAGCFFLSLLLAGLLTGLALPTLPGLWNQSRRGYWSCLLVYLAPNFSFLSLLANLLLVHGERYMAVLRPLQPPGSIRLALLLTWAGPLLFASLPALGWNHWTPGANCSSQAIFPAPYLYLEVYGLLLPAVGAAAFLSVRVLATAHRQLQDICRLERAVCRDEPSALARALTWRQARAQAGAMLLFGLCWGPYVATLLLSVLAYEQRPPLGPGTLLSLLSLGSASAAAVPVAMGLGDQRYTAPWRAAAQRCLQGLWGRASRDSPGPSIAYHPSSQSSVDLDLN
Protocol: (C) Effects of LCA and 7-ELCA (both at 10 µM) on intracellular generation of cAMP in differentiated NCI-H716 cells after 30 min treatment. The increase in cAMP level (ΔcAMP) is presented as the difference between cAMP concertation in the treated sample after subtraction of the cAMP in the nontreated control sample. (D) Concentration-response curves for activation of GPBAR1 by LCA and 7-ELCA. EC50 values were calculated using nonlinear fitting of concentration-response curves. […] GLP-1 was normalized to protein concentration and GPBAR1 mRNA expression to GAPDH mRNA. Data are presented as a fold to control nontreated (NT) samples. Forskolin (FSK, 10 µM) was used as a GPBAR1-independent activator of cAMP production.

FXR LBD = molecular target: T3, FXR LBD (Homo sapiens, UniProt Q96RI1); experiment: LanthaScreen TR-FRET FXR Coactivator Assay, antagonistic mode (SRC-2 peptide recruitment); assay type: biochemical
T3 construct: purchased ThermoFisher Scientific PV4833
T3 sequence (Q96RI1 262-486 limits assumed): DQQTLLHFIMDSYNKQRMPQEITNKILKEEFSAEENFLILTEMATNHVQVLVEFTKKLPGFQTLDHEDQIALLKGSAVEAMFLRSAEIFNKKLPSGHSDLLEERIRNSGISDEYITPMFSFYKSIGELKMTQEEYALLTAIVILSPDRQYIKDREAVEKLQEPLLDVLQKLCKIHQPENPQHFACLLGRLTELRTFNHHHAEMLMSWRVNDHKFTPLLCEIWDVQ
Protocol: The LanthaScreen® TR-FRET FXR Coactivator Assay (goat, PV4833, ThermoFisher Scientific) was performed to assess the affinity of tested compounds to FXR ligand-binding domain (LBD) in agonistic and antagonistic models. In the antagonistic assays, the FXR LBD was co-incubated with OCA or GW4064, together with tested ligands in increasing concentrations. The assay was performed according to the manufacturer’s protocols. […] Data have been obtained from three independent experiments performed in 4 replicates.

[3] = HepG2, GW4064 1 µM, read-out: relative response (%) to the model FXR ligand activation (set to be 100%), GW4064 1 µM
[4] = HepG2, CDCA 20 µM, read-out: relative response (%) to the model FXR ligand activation (set to be 100%), CDCA 20 µM

| Compound | IC50 (HepaRG) | IC50 (HepG2) | IC50 (Huh7) | viability at 24 h, 10 µM (MTS viability assay [1]; HepG2 cells, HepG2, 24 h) | viability at 24 h, 10 µM (MTS viability assay [1]; HepaRG cells) | viability at 24 h, 10 µM (MTS viability assay [1]; Huh7 cells, Huh7, 24 h) | remaining activity at 10 µM (human FXR; [3]) | remaining activity at 40 µM (human FXR; [4]) | remaining activity at 40 µM (human FXR; [3]) | IC50 (AML12) | viability at 24 h, 10 µM (MTS viability assay [2]) | capacity to antagonize OCA-stimulated FXR activation (in words) (human FXR; with 1 µM OCA) | CRE-luc activation compared to LCA (in words) (GPBAR1) | IC50 (human FXR; HepG2, co-treatment with 1 µM OCA, 24 h, read-out: IC50, inhibition of OCA-induced FXR activation) | inhibition at 100 µM (human FXR; HepG2, at 100 µM, with 1 µM OCA, read-out: inhibition of FXR activation) | IC50 (FXR LBD; GW4064 1 µM, read-out: IC50, inhibition of GW4064-promoted interaction of SRC-2 and FXR) | IC50 (FXR LBD; OCA 1 µM, read-out: IC50, inhibition of OCA-induced recruitment of SRC-2 to FXR LBD) |
| --- | --- | --- | --- | --- | --- | --- | --- | --- | --- | --- | --- | --- | --- | --- | --- | --- | --- |
| C[C@H](CCC(=O)O)[C@H]1CCC2C3C(CC[C@@]21C)[C@@]1(C)CC[C@@H](O)C[C@H]1C[C@@]3(C)O (stereo partly drawn) [2b, 3α,7α-Dihydroxy-7β-methyl-5β-cholan-24-oic acid] | > 200 µM | > 200 µM | > 200 µM | 99.7 ± 1.2% | 119.5 ± 1% | 106 ± 5.8% | 85 ± 7.7% | 112 ± 1.6% | 64.9 ± 5% | > 200 µM | 108 ± 7.7% | – | – | – | – | – | – |
| CC[C@@]1(O)C[C@@H]2C[C@H](O)CC[C@]2(C)C2CC[C@@]3(C)C(CC[C@@H]3[C@H](C)CCC(=O)O)C21 (stereo partly drawn) [2c, 3α,7α-Dihydroxy-7β-ethyl-5β-cholan-24-oic acid] | > 200 µM | > 200 µM | > 200 µM | 100 ± 3.9% | 117 ± 1.3% | 113 ± 4.8% | 89 ± 6% | 67.1 ± 9.2% | 75.3 ± 2.5% | > 200 µM | 105 ± 2% | – | – | – | – | – | – |
| C=C[C@@]1(O)C[C@@H]2C[C@H](O)CC[C@]2(C)C2CC[C@@]3(C)C(CC[C@@H]3[C@H](C)CCC(=O)O)C21 (stereo partly drawn) [2d, 3α,7α-Dihydroxy-7β-vinyl-5β-cholan-24-oic acid] | > 200 µM | 168.8 ± 1 µM | > 100 µM | 95.9 ± 8.3% | 104 ± 2.4% | 117 ± 5.6% | 93.9 ± 6.6% | 80.2 ± 0.4% | 75.2 ± 4.6% | > 200 µM | 106 ± 3.9% | maintained | – | – | – | – | – |
| C#C[C@@]1(O)C[C@@H]2C[C@H](O)CC[C@]2(C)C2CC[C@@]3(C)C(CC[C@@H]3[C@H](C)CCC(=O)O)C21 (stereo partly drawn) [2e, 3α,7α-Dihydroxy-7β-ethynyl-5β-cholan-24-oic acid] | > 200 µM | > 200 µM | > 200 µM | 96.5 ± 4.1% | 92.9 ± 6.5% | 103 ± 4.4% | 80.3 ± 3.9% | 114.8 ± 0.7% | 64.8 ± 4.9% | > 200 µM | 97.5 ± 6.6% | only minor antagonist activity | weak or no ability to act as agonists of GPBAR1 | – | – | – | – |
| C=CC[C@@]1(O)C[C@@H]2C[C@H](O)CC[C@]2(C)C2CC[C@@]3(C)C(CC[C@@H]3[C@H](C)CCC(=O)O)C21 (stereo partly drawn) [2g, 3α,7α-Dihydroxy-7β-allyl-5β-cholan-24-oic acid] | > 200 µM | 162 ± 2.1 µM | > 100 µM | 97.7 ± 9.1% | 126 ± 4.5% | 93.5 ± 10% | 93.2 ± 0.6% | 107.2 ± 0.3% | 74.4 ± 4.4% | 161 µM | 109 ± 3.2% | maintained | comparable activities to LCA | – | – | – | – |
| CC(CCC(=O)O)C1CCC2C3C(CCC12C)C1(C)CCC(O)CC1CC3(O)C(C)C (stereo not drawn) [2h, 3α,7α-Dihydroxy-7β-isopropyl-5β-cholan-24-oic acid] | 181 µM | 103.3 ± 1 µM | > 100 µM | 93.4 ± 7.4% | 101 ± 6.9% | 97.6 ± 7.3% | 91.4 ± 5.3% | 47.6 ± 0.3% | 63 ± 8.2% | 143 µM | 94 ± 3.7% | – | – | 17.5 ± 1.7 µM | ~90% | 35.2 ± 5.4 µM | 25 ± 3.7 µM |
| C=CCCC[C@@]1(O)C[C@@H]2C[C@H](O)CC[C@]2(C)C2CC[C@@]3(C)C(CC[C@@H]3[C@H](C)CCC(=O)O)C21 (stereo partly drawn) [2j, 3α,7α-Dihydroxy-7β-(pent-4-en)-5β-cholan-24-oic acid] | 76.5 µM | 77.3 ± 1.2 µM | 34 ± 1.5 µM | 87.8 ± 6.7% | 93.1 ± 4.4% | 114 ± 7% | 93.6 ± 2.8% | – | – | 75 µM | 127 ± 7.1% | maintained | weak or no ability to act as agonists of GPBAR1 | – | – | – | – |
